From patent EP4678629A1, “IONIZABLE LIPID MOLECULE, PREPARATION METHOD THEREFOR AND USE THEREOF” (Maxirna (Shanghai) Pharmaceutical Co., Ltd., priority 2023, dated 2024) come the findings set out here.

For orientation: viability means a read-out of living cells in per cent, often relative to untreated cells.

Data set [1] deals with mice. The experiment in a line: In vivo transfection with Fluc-mRNA lipid nanoparticle (LNP preparation), live imaging of fluorescence intensity. The following applies: 0.5 mg/kg; for fluorescence intensity, intramuscular injection administration / fluorescence intensity / expression in the chest and abdomen: Fluc-mRNA LNP of Table 2 (DOPE); for fluorescence intensity: intravenous and intramuscular injection. On the procedure:
According to the method described in Example II , LNP lipid nanoparticles of Fluc-mRNA (Maxirna FLuc mRNA, 1 mg/mL), SM-102 (CAS number: 2089251-47-6, A.V.T (Shanghai) Pharmaceutical Co., Ltd.), and positive control 1 (US10195156B2, it was prepared according to the method described in the above embodiment, the main difference lay in replacing 2-((3-aminopropyl)amino)ethane-1-ol with 2-((2-aminoethyl)amino)ethane-1-ol, the structure was as shown in FIG. 1) were prepared respectively. Cholesterol (Chol), DSPC, DOPE, and DMG-PEG2000 were purchased from A.V.T (Shanghai) Pharmaceutical Co., Ltd. Mice were randomly selected, and the lipid nanoparticles were injected intravenously and intramuscularly (4 mice per group) at a dosage of 0.5 mg/kg. Tris and Fluc-mRNA were directly injected as controls. After 6 hours, 200 ul of 10 mg/ml D-luciferin potassium salt was respectively injected into each mouse through the tail vein. After 10 minutes, the mice were placed under a live imaging system to observe the total fluorescence intensity of each mouse and take photos for recording. After 24 hours, the mice were placed under the live imaging system to observe the total fluorescence intensity of each mouse and take photos for recording. Table 2: Preparation parameters of each LNP
(§1) LNP lipid nanoparticles of Fluc-mRNA were respectively prepared using the method described in Example II. Mice were randomly selected, and the lipid nanoparticles were injected intramuscularly (2 mice per group) at a dosage of 0.5 mg/kg. Tris was directly injected as a control. After 6 hours, 200 ul of 10 mg/ml D-luciferin potassium salt was respectively injected into each mouse through the tail vein. After 10 minutes, the mice were placed under a live imaging system to observe the total fluorescence intensity of each mouse and take photos for recording. After 24 hours, the mice were placed under the live imaging system to observe the total fluorescence intensity of each mouse and take photos for recording. Table 3: Preparation parameters of each LNP
as §1, with “II .” for “II.”, “(3” for “(2”, “4:” for “3:”

Data set [2] is described as follows: Encapsulation efficiency of the lipid nanoparticle (eGFP mRNA) by Ribogreen method. It is filed as physicochemical. The conditions noted are these: LNP encapsulating eGFP mRNA, ionizable lipid/DOPE/cholesterol/DMG-PEG2000 50/10/48.25/1.25 mol%, N/P 12. In outline: (§2)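 LNPs were made by microfluidic mixing of ionizable lipid/DOPE/cholesterol/DMG-PEG2000 (50/10/48.25/1.25 mol%) in ethanol with eGFP mRNA in 20 mM citrate pH 6.1, N/P 12, then ultrafiltered into DPBS and 0.2 µm filtered. Size and PDI by DLS at 173° backscatter; encapsulation by Ribogreen.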

Data set [3] is described as follows: In vitro transfection of cells with eGFP-mRNA lipid nanoparticle (LNP preparation), fluorescence imaging and flow cytometry. It counts as cell-based, mouse. The following applies: mouse, dc2.4 cells, 200 ng of mRNA per well, after 24 hours; read-out: Cell viability, %. The method, boiled down:
(§3)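 Mouse bone marrow-derived DC2.4 dendritic cells seeded at 2 × 10^5 cells/well in DMEM with 10% FBS, transfected with eGFP-mRNA LNPs the next day at 37 °C, 5% CO2. After 24 hours, viability, eGFP-positive rate and mean fluorescence intensity read by fluorescence imaging and flow cytometry.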
(In general: A flow cytometer gives signals particle by particle.)

In data set [4] the test system is DC2.4 cells. The description is as above. It is filed as cell-based, mouse. The following applies: DC2.4 cells, 200 ng of mRNA per well, after 24 hours; for Positive rate, %: eGFP positivity rate; for Cell viability, %: 1440 min. In outline:
as §3

A short description of data set [5]: Size and polydispersity index (PDI) of the lipid nanoparticle by dynamic light scattering. The following applies: LNP encapsulating eGFP mRNA, ionizable lipid/DOPE/cholesterol/DMG-PEG2000 50/10/48.25/1.25 mol%, N/P 12; for Particle size: in nm (unit assumed). It counts as physicochemical. The method, boiled down: as §2
[6] abbreviates: Fluc-mRNA LNP of Table 3 (DSPC), intramuscular, 6 and 24 hours.
Where [7] appears, read: Fluc-mRNA LNP of Table 4 (DSPC), intramuscular, 6 and 24 hours.

On to `CCCCCCCCCCCOC(=O)CCCCCCCN(CCO)CCCN(CCCCCCCC(=O)OCCCCCCCCCCC)CCCCCCCC(=O)OCCCCCCCCCCC` [Example 1, Diundecyl 8,8'-((3-((2-hydroxyethyl)(8-oxo-8-(undecyloxy)octyl)amino)propyl)azanediyl)dioctanoate], for which the whole-body expression entry in data set [1] (setting [6]) is reported as “even better than SM-102”. Further, the “Encapsulation rate, %” value in data set [2] is recorded as 96.32%. In data set [3], the viability at 24 h was found to be 92%. Moreover, the “Positive rate, %” value in data set [4] is reported as 91.23%. Moreover, in data set [5], the PDI is given as 0.18 and the Particle size came out at 59.34.
`CCCCCCCCCCCOC(=O)CCCCCN(CCO)CCCN(CCCCCC(=O)OCCCCCCCCCCC)CCCCCC(=O)OCCCCCCCCCCC` [Example 11, Diundecyl 6,6'-((3-((2-hydroxyethyl)(6-oxo-6-(undecyloxy)hexyl)amino)propyl)azanediyl)dihexanoate]: the “fluorescence intensity, intramuscular injection administration” value in data set [1] (intramuscular) is listed as “still maintain high fluorescence intensity”. In data set [1] (6 and 24 hours), the fluorescence intensity result is “stronger than that of positive control 1 and comparable to SM-102”. Besides, the “Encapsulation rate, %” value in data set [2] is recorded as 90.99%. In addition, the viability at 24 h in data set [3] worked out at 84.3%. For the same compound, in data set [4], the “Positive rate, %” value is listed as 95.68%. Moreover, in data set [5], the PDI worked out at 0.17 and the Particle size amounted to 97.96.
For `CCCCCCCCCCCOC(=O)CCCN(CCO)CCCN(CCCC(=O)OCCCCCCCCCCC)CCCC(=O)OCCCCCCCCCCC` [Example 12, Diundecyl 4,4'-((3-((2-hydroxyethyl)(4-oxo-4-(undecyloxy)butyl)amino)propyl)azanediyl)dibutanoate], in data set [1] (intramuscular), the “expression in the chest and abdomen” value is listed as “much lower than that of SM-102”; the “fluorescence intensity, intramuscular injection administration” value is on record as “still maintain high fluorescence intensity”. Also, the fluorescence intensity entry in data set [1] (6 and 24 hours) was “stronger than that of positive control 1 and comparable to SM-102”. Moreover, in data set [1] (setting [6]), the whole-body expression result is on record as “even better than SM-102”. Besides, in data set [2], the “Encapsulation rate, %” value is listed as 90.54%. In addition, the viability at 24 h in data set [3] was found to be 81.2%. The “Positive rate, %” value in data set [4] came out at 97.78%. In addition, in data set [5], the PDI was 0.22 and the Particle size is 88.51.
Regarding `CCCCCC/C=C\COC(=O)CCCCCCCN(CCCCCCCC(=O)OC/C=C\CCCCCC)CCCN(CCCCCCCC(=O)OC/C=C\CCCCCC)CCCCCCCC(=O)OC/C=C\CCCCCC` [Example 21, Tetra((Z)-non-2-en-1-yl)8,8',8",8‴-(propane-1,3-diyldi(azanetriyl))tetraoctanoate], in data set [1] (intramuscular), the “expression in the chest and abdomen” value is listed as “much lower than that of SM-102”; the “fluorescence intensity, intramuscular injection administration” value is “still maintain high fluorescence intensity”. In addition, the fluorescence intensity result in data set [1] (6 and 24 hours) is “stronger than that of positive control 1 and comparable to SM-102”.
As for `CCCCC/C=C\C/C=C\CCCCCCCCOC(=O)CCCN(CCCO)CCCN(CCCC(=O)OCCCCCCCC/C=C\C/C=C\CCCCC)CCCC(=O)OCCCCCCCC/C=C\C/C=C\CCCCC` [Example 81, Di((9Z,12Z)-octadeca-9,12-dien-1-yl)4,4'-((3-((3-hydroxypropyl)(4-(((9Z,12Z)-octadeca-9,12-dien-1-yl)oxo)-4-oxobutyl)amino)propyl)azanediyl)dibutanoate], the whole-body expression entry in data set [1] (setting [6]) is recorded as “even better than SM-102”. Further, in data set [2], the “Encapsulation rate, %” value turned out to be 99.10%. Besides, in data set [4], the “Cell viability, %” value is listed as 76.4% and the “Positive rate, %” value is on record as 93.39%. Moreover, the Particle size in data set [5] turned out to be 99.10.
As for `CCCCC/C=C\C/C=C\CCCCCCCCOC(=O)CCCN(CCCO)CCCCN(CCCC(=O)OCCCCCCCC/C=C\C/C=C\CCCCC)CCCC(=O)OCCCCCCCC/C=C\C/C=C\CCCCC` [Example 89], in data set [1] (setting [7]), the injection site entry was “superior to those of positive control 1 and SM-102”; the whole-body expression result was “superior to those of positive control 1 and SM-102”. For the same compound, in data set [2], the “Encapsulation rate, %” value is 94.22%. For the same compound, in data set [4], the “Cell viability, %” value is reported as 94.0% and the “Positive rate, %” value is on record as 92.26%. In data set [5], this compound showed a PDI of 0.09 and a Particle size of 96.38.
Regarding `CCCCCCCCCCCCOC(=O)CCCN(CCCO)CCCN(CCCC(=O)OCCCCCCCCCCCC)CCCC(=O)OCCCCCCCCCCCC` [Example 112, 4,4'-didodecyl((3-((4-(dodecoxy)-4-oxobutyl)(3-hydroxypropyl)amino)propyl)azetidinyl)dibutanoate], in data set [2], the “Encapsulation rate, %” value came to 91.22%. For the same compound, the viability at 24 h in data set [3] came out at 92.3%. Also, the “Positive rate, %” value in data set [4] is reported as 95.39%. In data set [5], the PDI was determined as 0.11 and the Particle size stood at 89.42.
The matching figures for `CCCCCCCCCCOC(=O)CCCN(CCCO)CCCN(CCCC(=O)OCCCCCCCCCC)CCCC(=O)OCCCCCCCCCC` [Example 113, Didecyl 4,4'-((3-((4-(decyloxy)-4-oxobutyl)(3-hydroxypropyl)amino)propyl)azetidinyl)dibutanoate]: 91.23%, 93.2%, 92.51%, 0.14 and 88.62.
As for `CCCCC/C=C\C/C=C\CCCCCCCCOC(=O)CCCCCCN(CCCO)CCCN(CCCCCCC(=O)OCCCCCCCC/C=C\C/C=C\CCCCC)CCCCCCC(=O)OCCCCCCCC/C=C\C/C=C\CCCCC` [Example 114], the “Encapsulation rate, %” value in data set [2] is reported as 92.78%. For the same compound, the viability at 24 h in data set [3] was determined as 93.4%. For the same compound, the “Positive rate, %” value in data set [4] was determined as 91.74%. In data set [5], this compound returned a PDI of 0.16 and a Particle size of 89.25.
